From patent US9896421B2, “Compound having skin-whitening, anti-oxidizing and PPAR activities and medical use thereof” (Pusan National University Industry-University Cooperation …, priority 2011, dated 2018) come the findings set out here.

Bounds are passed on as bounds.

As a reminder, the melting point is the temperature of the solid-liquid transition. Turning to `COc1ccc(/C=C2\NC(=S)NC2=O)c(OC)c1` [Compound 107, (Z)-5-(2,4-dimethoxybenzylidene)-2-thioxoimidazolidin-4-one], the melting point fell in the range of 237.1 to 238.6 °C.

The compound `COc1cc(/C=C2\NC(=O)NC2=O)cc(OC)c1OC` [Compound 34, (Z)-5-(3,4,5-trimethoxybenzylidene)imidazolidine-2,4-dione] had a melting point of 266.3 to 267.2 °C. The same measure for `[H]/N=C1/NC(=O)C(=Cc2ccc(O)cc2)N1C` [Compound 74, (Z)-5-(4-hydroxybenzylidene)-2-imino-1-methylimidazolidin-4-one]: 285.9 to 288 °C; for `CCOc1cc(C=C2C(=O)NC(=S)NC2=O)ccc1O`: 285 to 287.3 °C. The figure for `COc1ccc(/C=C2\NC(=O)NC2=O)c(OC)c1` [Compound 32, (Z)-5-(2,4-dimethoxybenzylidene)imidazolidine-2,4-dione] is 234.1 to 237.2 °C; for `CCOc1cc(/C=C2\CC(=O)NC2=O)ccc1O` [Compound 40, (E)-3-(3-ethoxy-4-hydroxybenzylidene)pyrrolidine-2,5-dione] it is 222.3 to 224.1 °C; for `COc1ccc(/C=C2\CC(=O)NC2=O)cc1` [Compound 42, (E)-3-(4-methoxybenzylidene)pyrrolidine-2,5-dione] it is 243.4 to 245.7 °C. The same measure for `COc1cc(/C=C2\NC(=S)NC2=O)cc(OC)c1OC` [Compound 109, (Z)-2-thioxo-5-(3,4,5-trimethoxybenzylidene)imidazolidin-4-one]: 264 to 266.6 °C; for `COc1ccc(/C=C2\CC(=O)NC2=O)cc1OC` [Compound 43, (E)-3-(3,4-dimethoxybenzylidene)pyrrolidine-2,5-dione]: 237.1 to 238.4 °C; for `COc1cc(/C=C2\SC(=O)NC2=O)cc(OC)c1OC` [Compound 12, (Z)-5-(3,4,5-trimethoxybenzylidene)thiazolidine-2,4-dione]: 179.1 to 181 °C. In the case of `COc1cc(/C=C2\CC(=O)NC2=O)cc(OC)c1O` [Compound 48, (E)-3-(4-hydroxy-3,5-dimethoxybenzylidene)pyrrolidine-2,5-dione], the melting point fell in the range of 236.7 to 237.7 °C. The figure for `COc1cc(/C=C2\NC(=O)NC2=O)cc(OC)c1O` [Compound 151, (Z)-5-(4-hydroxy-3,5-dimethoxybenzylidene)imidazolidine-2,4-dione] is 266 to 268.5 °C; for `[H]/N=C1/NC(=O)C(=Cc2ccc(OC)c(OC)c2)S1` [Compound 117, (Z)-5-(3,4-dimethoxybenzylidene)-2-iminothiazolidin-4-one] it is 274.2 to 276.3 °C. As for `COc1ccc(/C=C2/C(=O)NC(=N)N2C)cc1` [Compound 79, (Z)-2-Imino-5-(4-methoxybenzylidene)-1-methylimidazolidin-4-one], the melting point lay within 252.1 to 255 °C. The same measure for `COc1ccc(C=C2C(=O)NC(=S)NC2=O)c(OC)c1`: 294.1 to 295.4 °C; for `[H]/N=C1/NC(=O)C(=Cc2ccc(O)c(O)c2)S1` [Compound 112, (Z)-5-(3,4-dihydroxybenzylidene)-2-iminothiazolidin-4-one]: above 300 °C; for `O=C1NC(=S)NC(=O)C1=Cc1ccc(O)cc1O`: above 300 °C. Compound `COc1ccc(C=C2C(=O)NC(=O)NC2=O)cc1O` came in with a melting point of 279.3 to 281.4 °C. The figure for `COc1cc(/C=C2\CC(=O)NC2=O)ccc1O` [Compound 39, (E)-3-(4-hydroxy-3-methoxybenzylidene)pyrrolidine-2,5-dione] is 243.5 to 245.7 °C; for `O=C1NC(=O)/C(=C/c2ccc(O)cc2)N1` [Compound 25, (Z)-5-(4-hydroxybenzylidene)imidazolidine-2,4-dione] it is above 300 °C; for `[H]/N=C1/NC(=O)C(=Cc2ccc(OC)cc2OC)S1` [Compound 119, (Z)-5-(2,4-dimethoxybenzylidene)-2-iminothiazolidin-4-one] it is 249.1 to 250.7 °C.

In the case of `COc1ccc(/C=C2\CC(=O)NC2=O)c(OC)c1` [Compound 45, (E)-3-(2,4-dimethoxybenzylidene)pyrrolidine-2,5-dione], the melting point was 245.7 to 246.6 °C.

The compound `O=C1NC(=O)/C(=C/c2ccccc2O)N1` [Compound 33, (Z)-5-(2-hydroxybenzylidene)imidazolidine-2,4-dione] gave a melting point of 265.5 to 268.4 °C. `COc1cc(C=C2C(=O)NC(=S)NC2=O)ccc1O`: the melting point is 260.9 to 263.6 °C. The same measure for `COc1ccc(/C=C2\SC(=S)NC2=O)c(OC)c1` [Compound 70, (Z)-5-(2,4-dimethoxybenzylidene)-2-thioxothiazolidin-4-one]: 272.7 to 275.2 °C. Compound `COc1ccc(/C=C2\NC(=S)NC2=O)cc1` [Compound 104, (Z)-5-(4-methoxybenzylidene)-2-thioxoimidazolidin-4-one] registered a melting point of 266.9 to 267.5 °C.

`[H]/N=C1/NC(=O)C(=Cc2ccc(O)c(OC)c2)N1C` [Compound 76, (Z)-5-(4-hydroxy-3-methoxybenzylidene)-2-imino-1-methylimidazolidin-4-one] registered a melting point of 254.2 to 255.6 °C. The figure for `[H]/N=C1/NC(=O)C(=Cc2ccc(OC)c(OC)c2)N1C` [Compound 80, (Z)-5-(3,4-dimethoxybenzylidene)-2-imino-1-methylimidazolidin-4-one] is 257.1 to 259 °C; for `COc1ccc(C=C2C(=O)NC(=S)NC2=O)cc1OC` it is 269.9 to 271.7 °C. In turn, `COc1ccc(/C=C2\NC(=S)NC2=O)cc1OC` [Compound 105, (Z)-5-(3,4-dimethoxybenzylidene)-2-thioxoimidazolidin-4-one] displayed a melting point of 236.2 to 238 °C. Compound `COc1cc(C=C2C(=O)NC(=O)NC2=O)cc(OC)c1OC` gave a melting point of 274.8 to 275.4 °C.

`COc1ccc(C=C2C(=O)NC(=O)NC2=O)cc1OC` showed a melting point above 300 °C. The same measure for `COc1cc(/C=C2\CC(=O)NC2=O)cc(OC)c1OC` [Compound 47, (E)-3-(3,4,5-trimethoxybenzylidene)pyrrolidine-2,5-dione]: 191.2 to 193.6 °C; for `COc1ccc(C=C2C(=O)NC(=O)NC2=O)c(OC)c1`: 291.1 to 291.7 °C. The compound `O=C1NC(=O)/C(=C/c2cc(O)cc(O)c2)S1` [Compound 9, (Z)-5-(3,5-dihydroxybenzylidene)thiazolidine-2,4-dione] yielded a melting point of 288.4 to 290.2 °C. On to `[H]/N=C1/NC(=O)C(=Cc2ccc(OC)c(O)c2)N1C` [Compound 78, (Z)-5-(3-hydroxy-4-methoxybenzylidene)-2-imino-1-methylimidazolidin-4-one], for which the melting point is 276.1 to 277.3 °C. The compound `[H]/N=C1/NC(=O)C(=Cc2cc(OC)c(O)c(OC)c2)S1` [Compound 122, (Z)-5-(4-hydroxy-3,5-dimethoxybenzylidene)-2-iminothiazolidin-4-one] came in with a melting point of 254.3 to 256.6 °C. For `[H]/N=C1/NC(=O)C(=Cc2ccc(OC)cc2OC)N1C` [Compound 81, (Z)-5-(2,4-dimethoxybenzylidene)-2-imino-1-methylimidazolidin-4-one], the melting point is 244.6 to 245.6 °C. Compound `CCOc1cc(C=C2C(=O)NC(=O)NC2=O)ccc1O` gave a melting point of 244.7 to 246.1 °C. As to `COc1ccc(/C=C2\SC(=O)NC2=O)c(OC)c1` [Compound 10, (Z)-5-(2,4-dimethoxybenzylidene)thiazolidine-2,4-dione], the melting point was 254.7 to 255.6 °C. The same measure for `COc1cc(/C=C2\SC(=N)NC2=O)cc(OC)c1OC` [Compound 121, (Z)-2-Imino-5-(3,4,5-trimethoxybenzylidene)thiazolidin-4-one]: 253.3 to 254.8 °C.

In turn, `[H]/N=C1/NC(=O)C(=Cc2ccccc2O)S1` [Compound 120, (Z)-5-(2-hydroxybenzylidene)-2-iminothiazolidin-4-one] displayed a melting point of 210.1 to 211.5 °C.

In the case of `COc1cc(C=C2C(=O)NC(=S)NC2=O)cc(OC)c1OC`, the melting point is 258.9 to 260.7 °C.

`CCOc1cc(/C=C2\NC(=O)NC2=O)ccc1O` [Compound 28, (Z)-5-(3-ethoxy-4-hydroxybenzylidene)imidazolidine-2,4-dione] registered a melting point of 253 to 255.4 °C. The same measure for `O=C1C/C(=C\c2cc(O)cc(O)c2)C(=O)N1` [Compound 44, (E)-3-(3,5-dihydroxybenzylidene)pyrrolidine-2,5-dione]: 275.2 to 277.8 °C; for `COc1ccc(C=C2C(=O)NC(=S)NC2=O)cc1O`: 278.9 to 280.5 °C; for `O=C1NC(=S)NC(=O)C1=Cc1ccccc1O`: 250.6 to 251.4 °C.

Consider `[H]/N=C1/NC(=O)C(=Cc2cc(O)cc(O)c2)S1` [Compound 118, (Z)-5-(3,5-dihydroxybenzylidene)-2-iminothiazolidin-4-one], for which the melting point is above 300 °C.

Compound `COc1cc(C=C2C(=O)NC(=S)NC2=O)cc(OC)c1O` showed a melting point above 300 °C.

`[H]/N=C1/NC(=O)C(=Cc2ccc(O)c(OCC)c2)N1C` [Compound 77, (Z)-5-(3-ethoxy-4-hydroxybenzylidene)-2-imino-1-methylimidazolidin-4-one] had a melting point of 254.2 to 255.6 °C. The compound `O=C1C/C(=C\c2ccccc2O)C(=O)N1` [Compound 46, (E)-3-(2-hydroxybenzylidene)pyrrolidine-2,5-dione] returned a melting point of 271.3 to 272.1 °C.
